The values below come from BindingDB's records for doi:10.7270/Q2PR7TFT (Burnham Center For Chemical Genomics, 2010).

Structures are written as SMILES.

This test addresses T1, Type-1 angiotensin II receptor (Homo sapiens, UniProt P30556).
T1 sequence (P30556 whole entry): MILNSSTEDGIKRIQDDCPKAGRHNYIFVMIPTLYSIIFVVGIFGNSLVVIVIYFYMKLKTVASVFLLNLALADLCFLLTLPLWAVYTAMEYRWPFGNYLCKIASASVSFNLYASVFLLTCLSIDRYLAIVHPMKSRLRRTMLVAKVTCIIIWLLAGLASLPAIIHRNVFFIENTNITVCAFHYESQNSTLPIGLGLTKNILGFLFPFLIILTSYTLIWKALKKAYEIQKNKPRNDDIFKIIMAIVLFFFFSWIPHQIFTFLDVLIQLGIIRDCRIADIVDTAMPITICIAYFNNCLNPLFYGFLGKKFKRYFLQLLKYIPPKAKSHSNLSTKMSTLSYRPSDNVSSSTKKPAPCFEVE
The test can be described thus: agonist activity at AGTR1 – cell-based, uHTS hits, selectivity assay for APJ receptor agonist project, dose response (AID 488865).
One may read the EC50 as the concentration at which the effect is half-maximal. The low end stands for higher potency in that assay, the high end for lower potency in that assay. `CCOC(=O)C1C(Cn2cnc3ccccc32)=NC(=O)NC1c1cc(C)ccc1C` (centres undefined) [ethyl 6-(benzimidazol-1-ylmethyl)-4-(2,5-dimethylphenyl)-2-oxidanylidene-3,4-dihydro-1H-pyrimidine-5-carboxylate] gave an EC50 of more than 100 µM.

Consider `COc1ccc(CN=Nc2cc(C)nc3ccc(OC)cc23)c(OC)c1`, for which the concentration for a half-maximal effect (EC50) was more than 100 µM. The result for `CCCCCCC1=Cc2c/c(=C3/NN=C(c4cc(OC)c(OC)c(OC)c4)O3)c(=O)oc2=CC1=O` reads more than 100 µM; that for `COC(=O)C1C(Cn2cnc3ccccc32)=NC(=O)NC1c1cc(C)ccc1C` (centres undefined) [methyl 6-(benzimidazol-1-ylmethyl)-4-(2,5-dimethylphenyl)-2-oxo-3,4-dihydro-1H-pyrimidine-5-carboxylate], more than 100 µM.
